In patent US8741923B2, “Oxadiazole fused heterocyclic derivatives useful for the treatment of multiple sclerosis” (Merck Serono SA, priority 2008, dated 2014):

Tests used:
[1] = biological target: S1P3 (Homo sapiens (Human), UniProt Q99500); assay: 35S-GTPγS binding, S1P3 membranes; format: biochemical; conditions: membranes from CHO cells expressing S1P3
Procedure: (§1) Receptor binding assay: Membranes were prepared from CHO cells expressing S1P1 or S1P3 for use in ligand and 35S-GTPγS binding studies. Cells were suspended in 50 mM TRIS, pH 7.4, 2 mM EDTA, 250 mM Sucrose (buffer A) and 1× Complete protease inhibitor cocktail (Roche), and disrupted at 4° C. by N2 decompression using a cell disruption bomb (Parr Instrument). Following centrifugation at 1000 RPM for 10 min at 4° C., the supernatant was suspended in buffer A and centrifuged again at 19000 RPM for 60 min at 4° C. The pellet was then suspended in 10 mM HEPES, pH 7.4, 1 mM EDTA, 250 mM Sucrose (Buffer B), and 1× Complete EDTA-free protease inhibitor cocktail and homogenized using a potter. Membranes were flash frozen in liquid N2 and stored at −80° C. [33P]sphingosine 1-phosphate (3000 Ci/mmol; American Radiolabeled Chemicals, Inc.) was added to test compounds in DMSO. Membranes and WGA SPA beads (GE Healthcare) were added to give a final volume of 100 μl in 96-well plates with assay concentrations of 25 μM or 10 μM [33P]sphingosine 1-phosphate (respectively for S1P1 or S1P3), 50 mM HEPES, pH 7.5, 5 mM MgCl2, 100 mM NaCl, 0.4% fatty acid-free BSA, 1-5 μg/well of proteins and 100 μg/well of WGA SPA beads. Binding was performed for 60 min at RT on a shaker and bound radioactivity was measured on a PerkinElmer 1450 MicroBeta counter. Specific binding was calculated by subtracting remaining radioactivity in the presence of 1000-fold excess of unlabeled S1P. Binding data were analyzed using the GraphPad Prism program.
(§2) Measurements of 35S-GTPγS Binding:
Membranes (1 to 10 μg protein) prepared as described above, were incubated in 96-well Scintiplates (PerkinElmer) with test compounds diluted in DMSO, in 180 μl of 20 mM HEPES, pH 7.4, 10 mM MgCl2, 2 μg/well Saponin, 0.2% fatty acid free BSA (Assay buffer), 140 mM NaCl and 1.7 μM GDP. The assay was initiated with the addition of 20 μl of 1.5 nM [35S]-GTPγS (1100 Ci/mmol; GE Healthcare) in assay buffer. After 60 min incubation at 30° C. on a shaker, plates were centrifuged for 10 min at 2000 RPM. Supernatant was discarded and membrane bound radioactivity was measured on a PerkinElmer 1450 MicroBeta counter. Triplicate samples were averaged and expressed as % response relative to S1P activation in absence of compound (n=2).

[2] = biological target: T1, S1P1 (Homo sapiens (Human), UniProt P21453); assay: 35S-GTPγS binding, S1P1 membranes; format: biochemical; conditions: membranes from CHO cells expressing S1P1
T1 sequence (P21453 whole entry, species assumed): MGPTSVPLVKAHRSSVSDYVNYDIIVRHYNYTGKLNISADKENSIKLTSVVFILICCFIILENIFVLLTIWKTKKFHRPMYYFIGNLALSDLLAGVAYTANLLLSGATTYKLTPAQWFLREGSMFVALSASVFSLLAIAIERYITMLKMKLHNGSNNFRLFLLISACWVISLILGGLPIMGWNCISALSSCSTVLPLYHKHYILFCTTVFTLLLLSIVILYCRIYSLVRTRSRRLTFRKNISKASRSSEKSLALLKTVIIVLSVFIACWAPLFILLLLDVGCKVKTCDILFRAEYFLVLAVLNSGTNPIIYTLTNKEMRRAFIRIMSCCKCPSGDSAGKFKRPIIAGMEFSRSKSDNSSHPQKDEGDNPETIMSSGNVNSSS
Procedure: as §1, with “Membranes and WGA SPA beads (GE Healthcare) were added to give a final volume of 100 μl in 96-well plates with assay concentrations of 25 μM or 10 μM [33P]sphingosine 1-phosphate (respectively for S1P1 or S1P3), 50 mM HEPES, pH 7.5, 5 mM MgCl2, 100 mM NaCl, 0.4% fatty acid-free BSA, 1-5 μg/well of proteins and 100 μg/well of WGA SPA beads. Binding was performed for 60 min at RT on a shaker and bound radioactivity was measured on a PerkinElmer 1450 MicroBeta counter.” left out
as §2
After 60 min incubation at 30° C. on a shaker, plates were centrifuged for 10 min at 2000 RPM. […] Triplicate samples were averaged and expressed as % response relative to S1P activation in absence of compound (n=2).

[3] = biological target: T1, S1P1; assay: Receptor binding assay ([33P]sphingosine 1-phosphate, SPA) on S1P1 membranes; conditions: membranes from CHO cells expressing S1P1
Procedure: as §1

Chain of S1P3 (Q99500 whole entry, species assumed): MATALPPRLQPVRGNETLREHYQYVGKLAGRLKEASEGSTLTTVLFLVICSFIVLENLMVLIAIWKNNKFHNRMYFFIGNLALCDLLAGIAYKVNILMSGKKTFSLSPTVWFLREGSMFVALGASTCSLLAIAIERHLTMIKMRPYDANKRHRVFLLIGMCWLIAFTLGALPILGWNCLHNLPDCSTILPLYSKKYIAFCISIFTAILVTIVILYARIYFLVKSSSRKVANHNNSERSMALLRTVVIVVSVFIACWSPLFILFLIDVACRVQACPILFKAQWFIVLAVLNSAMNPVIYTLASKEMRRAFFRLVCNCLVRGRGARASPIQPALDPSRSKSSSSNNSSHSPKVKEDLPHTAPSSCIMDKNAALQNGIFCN

Row | EC50 [1] | EC50 [2] | Ki [3] | SMILES
1 |  | 32 nM | 11 nM | Cc1ccccc1-c1ccc(-c2nc(-c3ccc4[nH]ncc4c3)no2)cc1C [Compound 25, 5-[5-(2,2′-dimethylbiphenyl-4-yl)-1,2,4-oxadiazol-3-yl]-1H-indazole]
2 |  | 2.1 nM | 0.7 nM | COCc1cc(-c2nc(-c3ccc4c(c3)CN(CC(=O)O)CC4)no2)ccc1-c1ccccc1C [Compound 16, [7-{5-[2-(methoxymethyl)-2′-methylbiphenyl-4-yl]-1,2,4-oxadiazol-3-yl}-3,4-dihydroisoquinolin-2(1H)-yl]acetic acid]
3 |  | 6 nM | 1 nM | COCc1cc(-c2nc(-c3ccc4c(c3)CNCC4)no2)ccc1-c1ccccc1C [Compound 15, 7-{5-[2-(methoxymethyl)-2′-methylbiphenyl-4-yl]-1,2,4-oxadiazol-3-yl}-1,2,3,4-tetrahydroisoquinoline]
4 |  | 17 nM | 4.26 nM | CCC1CCCCN1c1ccc(-c2nc(-c3ccc4[nH]cnc4c3)no2)cc1COC (stereo not shown) [Compound 27, 5-{5-[4-(2-ethylpiperidin-1-yl)-3-(methoxymethyl)phenyl]-1,2,4-oxadiazol-3-yl}-1H-benzimidazole]
5 |  | 16 nM | 164 nM | CC1CCCCN1c1ccc(-c2nc(-c3ccc4[nH]ccc4c3)no2)cc1NS(C)(=O)=O (stereo not shown) [Compound 22, N-[5-[3-(1H-indol-5-yl)-1,2,4-oxadiazol-5-yl]-2-(2-methylpiperidin-1-yl)phenyl]methanesulfonamide]
6 |  | 4 nM | 3 nM | COc1cc(-c2nc(-c3ccc4[nH]ncc4c3)no2)ccc1-c1cscc1C [Compound 24, 5-{5-[3-methoxy-4-(4-methyl-3-thienyl)phenyl]-1,2,4-oxadiazol-3-yl}-1H-indazole]

More lines, now with the values behind:

Row | SMILES | EC50 [1] | EC50 [2] | Ki [3]
7 | CC1CCCCN1c1ccc(-c2nc(-c3ccc4c(c3)CNCC4)no2)cc1NS(C)(=O)=O (stereo not shown) [Compound 11, N-{2-(2-methylpiperidin-1-yl)-5-[3-(1,2,3,4-tetrahydroisoquinolin-7-yl)-1,2,4-oxadiazol-5-yl]phenyl}methanesulfonamide] | 159 nM | 6 nM | 4 nM
8 | COCc1cc(-c2nc(-c3ccc4[nH]cnc4c3)no2)ccc1-c1ccccc1C [Compound 4, 5-{5-[2-(methoxymethyl)-2′-methylbiphenyl-4-yl]-1,2,4-oxadiazol-3-yl}-1H-benzimidazole] | 325 nM | 8.4 nM | 5 nM
9 | Cc1ccccc1-c1ccc(-c2nc(-c3ccc4nc[nH]c4c3)no2)cc1CN(C)C [Compound 5, 1-{4-[3-(1H-benzimidazol-6-yl)-1,2,4-oxadiazol-5-yl]-2′-methylbiphenyl-2-yl}-N,N-dimethylmethanamine] |  | 3.4 nM | 5 nM
10 | CC1CCCCN1c1ccc(-c2nc(-c3ccc4c(c3)CNCC4)no2)cc1C(F)(F)F (stereo not shown) [Compound 10, 7-{5-[4-(2-methylpiperidin-1-yl)-3-(trifluoromethyl)phenyl]-1,2,4-oxadiazol-3-yl}-1,2,3,4-tetrahydroisoquinoline] | 584 nM | 12 nM | 3 nM
11 | Cc1cc(-c2nc(-c3ccc4[nH]cnc4c3)no2)cnc1N1CCCCC1C (stereo not shown) [Compound 3, 5-{5-[5-methyl-6-(2-methylpiperidin-1-yl)pyridin-3-yl]-1,2,4-oxadiazol-3-yl}-1H-benzimidazole] |  | 94 nM | 38 nM
12 | CC1CCCCN1c1ccc(-c2nc(-c3ccc4[nH]cnc4c3)no2)cc1C(F)(F)F (stereo not shown) [Compound 1, 5-{5-[4-(2-methylpiperidin-1-yl)-3-(trifluoromethyl)phenyl]-1,2,4-oxadiazol-3-yl}-1H-benzimidazole] | 621 nM | 11 nM | 5 nM
